One test deals with human orexin receptor 1 (Homo sapiens (Human), UniProt O43613). Put plainly: Orexin antagonist activity, intracellular calcium FLIPR assay, RBL-2H3 cells expressing human orexin receptor 1. It is filed as cell-based. The conditions noted are these: RBL-2H3 cells stably expressing human orexin receptor 1; orexin-A at approx. 80% maximal response; compound added 15 minutes before; read-out: Human Orexin1R IC50.

The next test deals with human orexin receptor 2 (Homo sapiens (Human), UniProt O43614). Put plainly: Orexin antagonist activity, intracellular calcium FLIPR assay, RBL-2H3 cells expressing human orexin receptor 2. It is filed as cell-based. The conditions noted are these: RBL-2H3 cells stably expressing human orexin receptor 2; orexin-A at approx. 80% maximal response; compound added 15 minutes before; read-out: Human Orexin2R IC50. (In general: A change in cytosolic calcium serves as a functional read-out for many receptors and channels.)
Chain of human orexin receptor 2 (O43614 whole entry): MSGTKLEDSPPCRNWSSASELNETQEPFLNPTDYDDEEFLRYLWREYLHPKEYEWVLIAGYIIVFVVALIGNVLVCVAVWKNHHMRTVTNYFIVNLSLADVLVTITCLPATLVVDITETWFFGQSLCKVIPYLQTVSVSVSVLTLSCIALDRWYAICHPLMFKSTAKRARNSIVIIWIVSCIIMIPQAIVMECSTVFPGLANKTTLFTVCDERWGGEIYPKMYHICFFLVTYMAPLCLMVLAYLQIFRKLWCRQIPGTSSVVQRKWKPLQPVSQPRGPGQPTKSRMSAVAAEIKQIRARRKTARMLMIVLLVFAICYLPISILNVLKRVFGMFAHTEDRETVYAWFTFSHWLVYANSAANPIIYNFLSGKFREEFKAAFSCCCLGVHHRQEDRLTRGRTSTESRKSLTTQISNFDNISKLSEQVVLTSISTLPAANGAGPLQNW

The source of these data is patent US9156829B2, “Cycloalkyl and heterocycloalkyl compounds as orexin receptor antagonists” (Takeda Pharmaceutical Company Limited, priority 2014, dated 2015).

Chain of human orexin receptor 1 (O43613 whole entry): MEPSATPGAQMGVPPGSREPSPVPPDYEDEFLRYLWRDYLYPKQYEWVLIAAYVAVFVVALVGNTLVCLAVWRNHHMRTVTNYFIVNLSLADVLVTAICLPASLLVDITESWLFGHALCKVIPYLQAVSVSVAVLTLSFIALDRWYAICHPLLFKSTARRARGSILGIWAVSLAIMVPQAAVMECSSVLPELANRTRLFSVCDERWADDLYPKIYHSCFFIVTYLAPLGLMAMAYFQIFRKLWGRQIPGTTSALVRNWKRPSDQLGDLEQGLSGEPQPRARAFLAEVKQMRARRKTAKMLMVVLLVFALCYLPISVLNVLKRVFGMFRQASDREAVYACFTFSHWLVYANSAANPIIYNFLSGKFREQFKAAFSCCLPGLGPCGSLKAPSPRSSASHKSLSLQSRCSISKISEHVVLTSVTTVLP

A word on the IC50: it is the concentration at which inhibition is half-maximal. `CC1(Nc2ncc(C(F)(F)F)cn2)CCCC1NC(=O)c1ncccc1-c1ncccn1` (stereo not shown) [Example 153, N-(2-Methyl-2-{[5-(trifluoromethyl)pyrimidin-2-yl]amino}cyclopentyl)-3-(pyrimidin-2-yl)pyridine-2-carboxamide]: the IC50 at human orexin receptor 1 is 0.066 µM; on human orexin receptor 2 it was > 10 µM.

For `CC1(Nc2ncc(C(F)(F)F)cn2)CCCC1NC(=O)c1ncccc1-n1nccn1` (stereo not shown) [Example 154, N-(2-Methyl-2-{[5-(trifluoromethyl)pyrimidin-2-yl]amino}cyclopentyl)-3-(2H-1,2,3-triazol-2-yl)pyridine-2-carboxamide], the results for the IC50 at human orexin receptor 1 and on human orexin receptor 2 were 0.042 µM and > 10 µM, respectively.

For `CC1(Nc2ccc(C(F)(F)F)cn2)CCCC1NC(=O)c1ncccc1-n1nccn1` (stereo not shown) [Example 155, N-(2-Methyl-2-{[5-(trifluoromethyl)pyridin-2-yl]amino}cyclopentyl)-3-(2H-1,2,3-triazol-2-yl)pyridine-2-carboxamide], the IC50 at human orexin receptor 1 is 0.008 µM; on human orexin receptor 2 it was > 10 µM.

For `CC1(Nc2ccc(C(F)(F)F)cn2)CCCC1NC(=O)c1ncccc1-c1ncccn1` (stereo not shown) [Example 156, N-(2-Methyl-2-{[5-(trifluoromethyl)pyridin-2-yl]amino}cyclopentyl)-3-(pyrimidin-2-yl)pyridine-2-carboxamide], the results for the half-maximal inhibitory concentration (IC50) at human orexin receptor 1 and on human orexin receptor 2 were 0.011 µM and > 10 µM, respectively.

`O=C(N[C@H]1CC(F)(F)C[C@@H]1Nc1ccc(OC(F)F)cn1)c1ccccc1-n1nccn1` [Example 157, N-[(1S,2S)-2-{[5-(Difluoromethoxy)pyridin-2-yl]amino}-4,4-difluorocyclopentyl]-2-(2H-1,2,3-triazol-2-yl)benzamide]: the figures for the IC50 at human orexin receptor 1 and on human orexin receptor 2 were 0.236 µM and > 10 µM, respectively.

Consider `CCc1nc(C(F)(F)F)cnc1N[C@H]1CCC[C@@H]1NC(=O)c1cc(F)ccc1-c1ncccn1` [Example 158, N-[(1S,2S)-2-{[3-Ethyl-5-(trifluoromethyl)pyrazin-2-yl]amino}cyclopentyl]-5-fluoro-2-(pyrimidin-2-yl)benzamide], for which the IC50 at human orexin receptor 1 was 0.005 µM; on human orexin receptor 2, > 10 µM.

For `Cc1nc(C(F)(F)F)cnc1N[C@H]1CCC[C@@H]1NC(=O)c1ncccc1-c1ncccn1` [Example 159, N-[(1S,2S)-2-{[3-Methyl-5-(trifluoromethyl)pyrazin-2-yl]amino}cyclopentyl]-3-(pyrimidin-2-yl)pyridine-2-carboxamide], the half-maximal inhibitory concentration (IC50) on human orexin receptor 1 is 0.025 µM; at human orexin receptor 2, > 10 µM.

As for `Cc1nnc(-c2ccccc2C(=O)N[C@H]2CCC[C@]2(C)Nc2cnc(C(F)(F)F)cn2)o1` [Example 160, 2-(5-Methyl-1,3,4-oxadiazol-2-yl)-N-[(1S,2S)-2-methyl-2-{[5-(trifluoromethyl)pyrazin-2-yl]amino}cyclopentyl]benzamide], the half-inhibitory concentration (IC50) is 0.029 µM on human orexin receptor 1 and > 10 µM at human orexin receptor 2.
